Experimental data as given in patent publication US7964598B2 (The J. David Gladstone Institutes, priority 1995, dated 2011).
Entries after “also recorded” stand apart in the source; their conditions may differ.

Columns and labels:
[1] = test system: Neuro-2a cells; assay: Aβ-induced apoptosis (DNA fragmentation assay); assay type: cell-based, mouse
Method: DNA Fragmentation Assay—DNA fragmentation of apoptotic cells was determined with Cell Death Detection ELISA kits (Roche, Indianapolis, Ind.).
FIG. 38. […] Control cells were not treated with Aβ1-42. Apoptotic cell death was measured with a DNA fragmentation assay. Values are the mean±S.D. of three separate experiments.
FIGS. 39A and 39B. […] Lysosomal leakage was quantitated by assaying cytosolic 0-hexosaminidase activity. […] Conditioned media were prepared as described above. Apoptosis was quantitated by measuring DNA fragmentation.

[2] = biological target: T1, YFP-apoE3-CFP (Homo sapiens, UniProt P02649); assay: Cell-based FRET assay, YFP-apoE3-CFP; details: for ratio of FRET to CFP emission in cells expressing YFP-apoE3-CFP: intracellular; for ratio of FRET to CFP emission in media of YFP-apoE3-CFP cells: medium
T1 construct: vector signal peptide (pFLAG-CMV3) (N); FLAG (N); expressed in transfected cells
Excerpt: (§1) Xu et al. (2004) J. Biol. Chem. 279:25511-25516. FRET—the non-radioactive transfer of photon energy from an excited fluorophore (donor) to another fluorophore (acceptor)—occurs only when the donor and acceptor are in close proximity (<100 Å). Thus, this approach can be used to measure nanometer scale distances.
(§2) Xu et al. (2004) J. Biol. Chem. 279:25511-25516. The constructs are depicted schematically in FIG. 29.
(§3) Since the emission spectrum of CFP (460-520 nm) overlaps with the excitation spectrum of YFP (480-520 nm), FLEXstation (Molecular Devices) can be used to measure FRET in living cells expressing YFP-apoE3-CFP or YFP-apoE4-CFP in a high throughput manner. […] Thus, the ratio of FRET to CFP emission in cells expressing YFP-apoE4-CFP is much higher than that in those expressing YFP-apoE3-CFP (FIG. 31). […] Since the FLEXstation can read FRET in both cells and the culture media treated without or with various small molecules, this assay allows one to know whether a small molecule affects apoE4 domain interaction only in the medium (“medium FRET”) or also inside the cell (“intracellular FRET”). In addition, after measurement of the intracellular FRET, the cells can be incubated further with MTT to determine the cytotoxicity of the compound. Thus, the cell-based FRET assay can simultaneously provide three sets of data-intracellular FRET, medium FRET, and cytotoxicity.
(§4) Quantifying FRET in Transfected Neuro-2a Cells—Stably transfected Neuro-2a cells expressing YFP-apoE3-CFP or YFP-apoE4-CFP at similar levels were selected by fluorescence activated cell sorter (FACS). YFP and CFP images of transfected cells were acquired with the Meta Detector, and their fluorescence intensities were analyzed with the mounted computer. The FRET signal was calculated as the ratio of YFP to CFP fluorescence intensity under CFP excitation. For each YFP-apoE-CFP construct, the FRET signal was measured in at least 12 cells from different fields.
(§5) Quantifying FRET in the Culture Medium—Neuro-2a cells stably expressing YFP-apoE3-CFP or YFP-apoE4-CFP and wildtype cells were grown in T175 flasks to 90% confluence and incubated with serum-free minimum essential medium containing N2 supplement for 24 h. The conditioned medium (20 ml/flask) was concentrated about 20-fold with Centriplus-YM-10 concentrators (Amicon, Bedford, Mass.), dialyzed against PBS, illuminated at the CFP excitation wavelength (430 nm), and scanned for emission spectrum. The FRET signal was calculated as the ratio of emission at 525 nm (YFP) to that at 475 nm (CFP). Conditioned medium from cells expressing apoE3-CFP or apoE4-CFP was used to determine baseline fluorescence in the absence of FRET.

[3] = biological target: T2, YFP-apoE4-CFP (Homo sapiens, UniProt P02649, C130R); assay: Cell-based FRET assay, YFP-apoE4-CFP; details: 5-20 μM; for ratio of FRET to CFP emission in the cells expressing YFP-apoE4-CFP: intracellular; for ratio of FRET to CFP emission in media of YFP-apoE4-CFP cells: medium
T2 construct: vector signal peptide (pFLAG-CMV3) (N); FLAG (N); expressed in transfected cells
Excerpt: as §1, §2, §3, §4, §5

[4] = test system: Neuro-2a cells; assay: Aβ-induced lysosomal leakage (cytosolic β-hexosaminidase); assay type: cell-based, mouse
Method: The cytosolic fraction was obtained by ultracentrifugation, and the cytosolic β-hexosaminidase activity was measured.
Quantitation of the lysosomal enzyme β-hexosaminidase activity in the cytosol indicates lysosomal leakage. […] After incubation the cells were washed and cytosolic fractions were isolated as described in Materials and Methods. The enzymatic activity of β-hexosaminidase was assayed in 20 μg of cytosolic protein for each sample.
Lysosomal leakage was quantitated by assaying cytosolic 0-hexosaminidase activity. […] Conditioned media were prepared as described above. Apoptosis was quantitated by measuring DNA fragmentation.

[5] = test system: YFP-apoE4-CFP cells; assay: MTT cytotoxicity assay; assay type: cell-based, mouse; details: 5-10 μM
Excerpt: as §3

T1 sequence (P02649 19-317): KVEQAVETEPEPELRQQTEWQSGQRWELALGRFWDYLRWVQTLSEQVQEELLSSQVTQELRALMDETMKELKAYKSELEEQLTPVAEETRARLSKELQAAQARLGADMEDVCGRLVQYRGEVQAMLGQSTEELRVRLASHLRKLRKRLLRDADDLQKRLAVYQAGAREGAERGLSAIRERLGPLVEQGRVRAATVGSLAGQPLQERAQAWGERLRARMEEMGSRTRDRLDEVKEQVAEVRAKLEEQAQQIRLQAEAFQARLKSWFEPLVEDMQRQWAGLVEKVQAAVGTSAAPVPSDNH
T2 sequence (P02649 19-317 C130R): as the sequence (P02649 19-317) above, with C112R counted along it

SMILES	apoptosis, cells with medium alone or medium containing apoE3 plus Aβ1-42 [1]	apoE4 potentiation of Aβ-induced apoptosis ([1]; apoE4 conditioned medium, Aβ1-42)	ratio of FRET to CFP emission in cells expressing YFP-apoE3-CFP [2]	ratio of FRET to CFP emission in media of YFP-apoE3-CFP cells [2]	ratio of FRET to CFP emission in the cells expressing YFP-apoE4-CFP [3]	ratio of FRET to CFP emission in media of YFP-apoE4-CFP cells [3]	lysosomal leakage, cells with medium alone or medium containing apoE3 plus Aβ1-42 [4]	apoE4 potentiation of Aβ-induced lysosomal leakage ([4]; 5 μM, apoE4 conditioned medium, Aβ1-42 20 μM)	cytotoxicity (MTT assay) [5]
CCN(CC)c1ccc(/N=N\c2cc(S(=O)(=O)O)cc3cc(S(=O)(=O)O)cc(O)c23)c(O)c1 [GIND-28]	no significant effect	block; also recorded: abolish	none of these compounds altered significantly	none of these compounds altered significantly	decreased significantly	decreased significantly	no significant effect	block; also recorded: abolish	did not cause significant cytotoxicity
Cc1cc(Cl)cc2sc(-c3sc4cc(Cl)cc(C)c4c3OS(=O)(=O)O)c(OS(=O)(=O)O)c12 [GIND-111]	–	–	none of these compounds altered significantly	none of these compounds altered significantly	decreased significantly	decreased significantly	–	–	did not cause significant cytotoxicity
